{"source": "patent US20240209014A1", "about": "“NOVEL SPINOSYN PRODRUGS” (Acies Bio d.o.o., priority 2021, published 2024)", "key": {"[1]": {"test_system": "larvae of Ostrinia nubilialis (development stage L1)", "experiment": "Insecticide efficacy, corn leaf dip, Henderson-Tilton method", "assay_type": "in vivo", "conditions": "for % efficacy (Henderson-Tilton): Ostrinia, foliar", "protocol": "Insecticide activities of the compounds of this invention were assessed in comparison with commercially available samples of spinosad (LGC (Dr. Ehrenstorfer); Product code: DRE-C16972830) and spinetoram (LGC (Dr. Ehrenstorfer); Product code: DRE-C16972770). Solutions of spinosyn compounds were prepared by adding 0.05% Tween 80, lowering pH to 5.95 and sonicating. Two concentrations of each compound were used, 0.1 μg/ml and 0.3 μg/mL, with each condition tested in four parallels.\nFreshly collected corn leaves were dipped into the prepared solutions. After dipping leaves were left to dry at room temperature for 1 hour. Each dry leaf was then infested with 4 larvae of Ostrinia nubilialis (development stage L1), and the experimental device was incubated at 21° C.-23° C. for 24 h in order to optimize insect development. At three timings post infestation (1 day, 3 days and 6 days), the insecticide efficacy is evaluated from the number of living larvae using the Henderson-Tilton method. Untreated control was integrated for normalization and validation of larvae health."}, "[2]": {"experiment": "Stability of J1A, J1B and J7 at different pH values (LC-MS)", "assay_type": "physicochemical", "protocol": "Stability of compounds J1A, J1B and J7 was evaluated at different pH values. Differential stability/conversion to the active ingredient is expected to result in condition-specific activation and thereby to higher specificity towards target pests.\nStock solutions of the compounds were prepared at concentration of 0.1 mol/L. 10 μL of the stock solutions were transferred to 0.75 ml of the buffer solutions with pH values of 4, 5, 9 and 11. The resulting solutions were incubated for 10 minutes and 3 and 24 h. After specified times samples were analyzed using LC-MS. The compounds J1A, J1B, J7 and the active compound butenyl spinosyn were quantified. It is seen that the three compounds are converted to the active form preferably in alkaline conditions."}, "[3]": {"test_system": "honey bees (Apis melifera carnica, Pollman 1879)", "experiment": "Single dose acute oral toxicity test on adult worker honey bees", "assay_type": "in vivo", "protocol": "Toxicity of the compounds of this invention towards honey bees (Apis melifera carnica, Pollman 1879) was assessed in comparison with commercially available samples of spinosad (LGC (Dr. Ehrenstorfer); Product code: DRE-C16972830) and the naturally produced compound butenyl spinosyn alpha 1. Solutions of spinosyn compounds were prepared in 100 mM ammonium acetate, pH=5, and later diluted in 50% (500 g/L) sucrose solution in water to final concentrations. Two final concentrations were used for each compound, 7.76 μmol/L and 15.53 μmol/L.\nSingle dose acute oral toxicity tests were conducted on adult worker bees according to previously described standard methods (Medrzycki at el., (2013)). Each compound and condition were tested in two parallels. Briefly, each parallel experiment consisted of 5 cages with 20 honey bees per cage. […] After uptake of the solutions honey bees were supplied with standard 50% sucrose solution and observed at 24 h and 48 h and the number of dead and live bees was estimated.\nAmmonium acetate solution with pH 5 was used as the negative control."}, "[4]": {"experiment": "Kinetic solubility assay", "assay_type": "physicochemical", "conditions": "25 °C, kinetic from dmso stock, dose conc 200 μM, 25±2° C.", "protocol": "Solubility of the compounds of the invention was assessed using kinetic solubility assay and compared to solubility of butenyl spinosyn. Stock solutions of spinosyn compounds were prepared in DMSO at mM concentration). 10 uL of the stock solutions were added into 490 of in K.S. 5.4 buffer of pH 5.4 (80 mM phosphoric acid, acetic acid, boric acid buffer, adjusted the pH to pH 5.4 with 1 N HCl and 1N NaOH) or K.S. 7.4 buffer with pH of 7.4 (80 mM phosphoric acid, acetic acid, boric acid buffer, adjusted the pH to pH 7.4 with 1 N HCl and 1N NaOH). The solutions were incubated with shaking at room […] temperature (25±2° C.) for 24 hours. 200 uL of each solution were then transferred into a new MultiScreen filter plate (Membrane of polycarbonate) and filtered by millipore vacuum manifold, and the filtrate was collected. The concentrtions of tested compounds in the filtered samples were analyzed by HPLC analysis calibrated by a standard curve generated by injection of 3 standard solutions of the relevant compound with concentrations of 1, 20, 200 μM."}}, "note": "Like-named read-outs stand apart in the source and are kept apart here."}
{"smiles": "CC/C=C/[C@H]1CCC[C@H](OC2CCC([N+](C)(C)COC(=O)C(C)(C)C)C(C)O2)[C@@H](C)C(=O)C2=C[C@@H]3[C@@H](C=C[C@@H]4C[C@@H](OC5OC(C)C(OC)C(OC)C5OC)C[C@@H]34)[C@@H]2CC(=O)O1", "note": "(some centres unmarked) [Compound J1A]", "values": [{"measurement": "insecticidal activity on Ostrinia nubilialis larvae (in words)", "setting": "[1]; 0.1 and 0.3 μg/mL, leaf dip", "value": "extremely potent insecticidal activity"}, {"measurement": "% efficacy (Henderson-Tilton)", "setting": "[1]; 24 h, read-out: % Efficacy, dose 0.1 μg a.i./ml, 1 day post infestation", "value": 2, "unit": "%"}, {"measurement": "% efficacy (Henderson-Tilton)", "setting": "[1]; 24 h, read-out: % Efficacy, dose 0.3 μg a.i./ml, 1 day post infestation", "value": 0, "unit": "%"}, {"measurement": "% efficacy (Henderson-Tilton)", "setting": "[1]; 72 h, read-out: % Efficacy, dose 0.1 μg a.i./ml, 3 days post infestation", "value": 44, "unit": "%"}, {"measurement": "% efficacy (Henderson-Tilton)", "setting": "[1]; 72 h, read-out: % Efficacy, dose 0.3 μg a.i./ml, 3 days post infestation", "value": 63, "unit": "%"}, {"measurement": "% efficacy (Henderson-Tilton)", "setting": "[1]; 144 h, read-out: % Efficacy, dose 0.1 μg a.i./ml, 6 days post infestation", "value": 89, "unit": "%"}, {"measurement": "% efficacy (Henderson-Tilton)", "setting": "[1]; 144 h, read-out: % Efficacy, dose 0.3 μg a.i./ml, 6 days post infestation", "value": 100, "unit": "%"}, {"measurement": "BuSPN Area % (active butenyl spinosyn released)", "setting": "[2]; buffer pH 4, 0.16 h", "value": 0.0, "unit": "%"}, {"measurement": "Compound (J1A/J1B/J7) Area % remaining", "setting": "[2]; buffer pH 4, 0.16 h", "value": 5.7, "unit": "%"}, {"measurement": "BuSPN Area % (active butenyl spinosyn released)", "setting": "[2]; buffer pH 4, 3 h", "value": 0.0, "unit": "%"}, {"measurement": "Compound (J1A/J1B/J7) Area % remaining", "setting": "[2]; buffer pH 4, 3 h", "value": 2.0, "unit": "%"}, {"measurement": "BuSPN Area % (active butenyl spinosyn released)", "setting": "[2]; buffer pH 4, 24 h", "value": 0.0, "unit": "%"}, {"measurement": "Compound (J1A/J1B/J7) Area % remaining", "setting": "[2]; buffer pH 4, 24 h", "value": 0.1, "unit": "%"}, {"measurement": "BuSPN Area % (active butenyl spinosyn released)", "setting": "[2]; buffer pH 5, 0.16 h", "value": 0.1, "unit": "%"}, {"measurement": "Compound (J1A/J1B/J7) Area % remaining", "setting": "[2]; buffer pH 5, 0.16 h", "value": 99.4, "unit": "%"}, {"measurement": "BuSPN Area % (active butenyl spinosyn released)", "setting": "[2]; buffer pH 5, 3 h", "value": 0.1, "unit": "%"}, {"measurement": "Compound (J1A/J1B/J7) Area % remaining", "setting": "[2]; buffer pH 5, 3 h", "value": 99.3, "unit": "%"}, {"measurement": "BuSPN Area % (active butenyl spinosyn released)", "setting": "[2]; buffer pH 5, 24 h", "value": 1.7, "unit": "%"}, {"measurement": "Compound (J1A/J1B/J7) Area % remaining", "setting": "[2]; buffer pH 5, 24 h", "value": 97.4, "unit": "%"}, {"measurement": "BuSPN Area % (active butenyl spinosyn released)", "setting": "[2]; buffer pH 9, 0.16 h", "value": 32.6, "unit": "%"}, {"measurement": "Compound (J1A/J1B/J7) Area % remaining", "setting": "[2]; buffer pH 9, 0.16 h", "value": 66.4, "unit": "%"}, {"measurement": "BuSPN Area % (active butenyl spinosyn released)", "setting": "[2]; buffer pH 9, 3 h", "value": 71.8, "unit": "%"}, {"measurement": "Compound (J1A/J1B/J7) Area % remaining", "setting": "[2]; buffer pH 9, 3 h", "value": 26.6, "unit": "%"}, {"measurement": "BuSPN Area % (active butenyl spinosyn released)", "setting": "[2]; buffer pH 9, 24 h", "value": 46.6, "unit": "%"}, {"measurement": "Compound (J1A/J1B/J7) Area % remaining", "setting": "[2]; buffer pH 9, 24 h", "value": 0.0, "unit": "%"}, {"measurement": "BuSPN Area % (active butenyl spinosyn released)", "setting": "[2]; buffer pH 11, 0.16 h", "value": 80.7, "unit": "%"}, {"measurement": "Compound (J1A/J1B/J7) Area % remaining", "setting": "[2]; buffer pH 11, 0.16 h", "value": 18.4, "unit": "%"}, {"measurement": "BuSPN Area % (active butenyl spinosyn released)", "setting": "[2]; buffer pH 11, 3 h", "value": 98.0, "unit": "%"}, {"measurement": "Compound (J1A/J1B/J7) Area % remaining", "setting": "[2]; buffer pH 11, 3 h", "value": 0.5, "unit": "%"}, {"measurement": "% of surviving honey bees", "setting": "[3]; single oral dose 0.078 nmol/bee, 24 h after application", "value": 95, "unit": "%"}, {"measurement": "% of surviving honey bees", "setting": "[3]; single oral dose 0.078 nmol/bee, 48 h after application", "value": 92, "unit": "%"}, {"measurement": "% of surviving honey bees", "setting": "[3]; single oral dose 0.155 nmol/bee, 24 h after application", "value": 89, "unit": "%"}, {"measurement": "% of surviving honey bees", "setting": "[3]; single oral dose 0.155 nmol/bee, 48 h after application", "value": 75, "unit": "%"}, {"measurement": "solubility kinetic at 24 h", "setting": "[4]; pH 5.4, aqueous buffer, K.S. 5.4 buffer, read-out: Kinetic Solubility pH = 5.4", "value": 189, "unit": "µM"}, {"measurement": "solubility kinetic at 24 h", "setting": "[4]; pH 7.4, aqueous buffer, K.S. 7.4 buffer, read-out: Kinetic Solubility pH = 7.4", "value": 143, "unit": "µM"}]}
